This test concerns the target T1, testosterone 5α-reductase (Rattus norvegicus, UniProt P31214).
T1 construct: The prostates were drained, minced, and then homogenized in 3 -4 tissue volumes of medium A; from tissue; host or cells: ventral prostate of mature male Sprague-Dawley rats, resuspended 3,000 g pellet
T1 sequence (P31214 1-254): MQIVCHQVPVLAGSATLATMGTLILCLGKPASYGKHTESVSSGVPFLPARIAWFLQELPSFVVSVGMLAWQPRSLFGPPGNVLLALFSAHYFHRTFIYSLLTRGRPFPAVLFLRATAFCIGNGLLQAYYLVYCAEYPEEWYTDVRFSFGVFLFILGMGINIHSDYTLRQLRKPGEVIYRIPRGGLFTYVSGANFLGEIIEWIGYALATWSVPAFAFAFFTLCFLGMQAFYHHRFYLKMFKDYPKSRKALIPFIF
Nature of the test: Inhibitory activity on testosterone 5α-reductase in rats (rat ventral prostate suspension, 3H-testosterone). The test is classed as biochemical, rat (Spraque-Dawley male rats). The settings on record: rat prostatic 5α-reductase; 2.2×10^-9 M testosterone, 50 μM NADPH, pH 6.5, 37° C., 30 minutes. From the text:
[2]Inhibitory activity on testosterone 5α-reductase in rats:
1,2,6,7-^3 H-testosterone (85-105 Ci/mmol) is a mixture of 1,2,6,7-3H-testosterone and testosterone which includes 85-105 Ci of 1,2,6,7-^3 H-testosterone per mmol of testosterone and is purchased from New England Nuclear, Boston, Mass., U.S.A.
Aquazol-2 (Aquazol-2 Universal LSC Cocktail) trademark, purchased from New England Nuclear, Boston, Mass., U.S.A. ii) Preparation of prostatic testosterone 5α-reductase
Mature Spraque-Dawley male rats (7-8 weeks old) were sacrificed by diethyl ether. The ventral prostates were dissected to be free of their capsules and their combined volume was measured by displacement in several milliliters of ice-cold medium A (0.32M sucrose, 0.1 mM dithiothreitol and 20 mM sodium phosphate, pH 6.5). Unless specified, all the following procedures were carried out at 0 -4. The prostates were drained, minced, and then homogenized in 3 -4 tissue volumes of medium A with Pyrex-glass homogenizer. […]
The reaction solution contains 1 mM dithiothreitol, 40 mM sodium phosphate pH 6.5, 50 μM NADPH, 1,2,6,7-^3 H-testosterone/testosterone (2.2×10^-9 M) and the suspension prepared above ([…]) in a total volume of 565 μl. […] The radioactivity was determined in 5 ml of Aquazol-2 in Packard scintillation counter (PACKARD TRI-CARB 4530), and an inhibitory ratio was calculated.

For orientation: IC50 means the concentration that inhibits the measured activity by half. Higher therefore signals lower potency.

Compound `CCCCCCCCCCC(=O)c1cn(CCCC(=O)O)c2ccccc12` [(1), 4-(3-Undecanoyl-1-indolyl)butyric acid] registered an IC50 of 0.44 nM.

The record behind these values is patent US5530019A, “Indole derivatives useful as testosterone 5α-reductase inhibitors” (Fujisawa Pharmaceutical Co., Ltd., priority 1993, dated 1996).
